# From patent publication US6511993B1, “Metalloprotease inhibitors” (priority 1999, dated 2003)
row,melting point,SMILES
1,213 to 214 °C,CNCc1cccc(-c2ccc(C3CCN(S(=O)(=O)C4(C(=O)NO)CCOCC4)CC3)cc2C)c1.Cl
2,152 to 154 °C,"Cc1cc(C2CCN(S(=O)(=O)C(C)(C)C(=O)NO)CC2)ccc1-c1cccc(OC[C@@H](O)CO)c1 [Example 8, N-Hydroxy 2-[4-(4-{3-[(2S)-2,3-dihydroxy-1-propoxy]phenyl}-3-methylphenyl)-piperidin-1-ylsulphonyl]-2-methylpropanamide]"
3,177 to 179 °C,"Cc1cc(C2CCN(S(=O)(=O)C3(C(=O)NO)CCOCC3)CC2)ccc1-c1cccc(CN2CCOCC2)c1 [Example 17, N-Hydroxy 4-{[4-(3-methyl-4-{3-[4-morpholinylmethyl]}phenyl)piperidin-1-yl]sulphonyl}tetrahydro-2H-pyran-4-carboxamide]"
4,215 to 218 °C,"Cc1cc(C2CCN(S(=O)(=O)C3(C(=O)NO)CC(O)C(O)C3)CC2)ccc1-c1cccc(OCCO)n1 (stereo not drawn) [Example 21, (1α,3α,4α)-N,3,4-trihydroxy-1-[(4-{4-[6-(2-hydroxyethoxy)pyridin-2-yl]-3-methylphenyl}piperidin-1-yl)sulfonyl]cyclopentanecarboxamide]"
5,204 to 205 °C,"CCOc1cccc(-c2ccc(C3CCN(S(=O)(=O)C4(C(=O)NO)CC(O)C(O)C4)CC3)cc2C)n1 (stereo not drawn) [Example 22, (1α,3α,4α)-1-({4-[4-(6-ethoxypyridin-2-yl)-3-methylphenyl]piperidin-1-yl}sulfonyl)-N,3,4-trihydroxycyclopentanecarboxamide]"
6,196 to 197 °C,"CCOc1cccc(-c2ccc(C3CCN(S(=O)(=O)C4(C(=O)NO)CC(O)C(O)C4)CC3)cc2C)n1 (stereo not drawn) [Example 23, (1α,3β,4β)-1-({4-[4-(6-ethoxypyridin-2-yl)-3-methylphenyl]piperidin-1-yl}sulfonyl)-N, 3,4-trihydroxycyclopentanecarboxamide]"
7,201 to 202 °C,"COc1cccc(-c2ccc(C3CCN(S(=O)(=O)C4(C(=O)NO)CC(O)C(O)C4)CC3)cc2C)c1 (stereo not drawn) [Example 24, (1α,3α,4α)-N,3,4-trihydroxy-1-{4-[4-(3-methoxyphenyl)-3-methylphenyl]piperidin-1-ylsulfonyl}cyclopentanecarboxamide]"
8,188 to 189 °C,"COc1cccc(-c2ccc(C3CCN(S(=O)(=O)C4(C(=O)NO)CC(O)C(O)C4)CC3)cc2C)c1 (stereo not drawn) [Example 25, (1α,3β,4β)-N,3,4-trihydroxy-1-{4-[4-(3-methoxyphenyl)-3-methylphenyl]piperidin-1-ylsulfonyl}cyclopentanecarboxamide]"
